From US6652890B2, “Tea catechins as cancer specific proliferation inhibitors” (Purdue Research Foundation, priority 1999, dated 2003) come the findings set out here.

“Also recorded” adds a separate entry of the source.

Holding throughout (type): cell-based
In assay [1] the target is T1, tNOX activity of HeLa S cells (Homo sapiens, UniProt Q16206).
T1 construct: Response of the NADH oxidase of HeLa S cells to (−)-epigallocatechin gallate (EGCg) alone; endogenous in cells; methods say ATCC CCL2
T1 sequence (Q16206 1-610): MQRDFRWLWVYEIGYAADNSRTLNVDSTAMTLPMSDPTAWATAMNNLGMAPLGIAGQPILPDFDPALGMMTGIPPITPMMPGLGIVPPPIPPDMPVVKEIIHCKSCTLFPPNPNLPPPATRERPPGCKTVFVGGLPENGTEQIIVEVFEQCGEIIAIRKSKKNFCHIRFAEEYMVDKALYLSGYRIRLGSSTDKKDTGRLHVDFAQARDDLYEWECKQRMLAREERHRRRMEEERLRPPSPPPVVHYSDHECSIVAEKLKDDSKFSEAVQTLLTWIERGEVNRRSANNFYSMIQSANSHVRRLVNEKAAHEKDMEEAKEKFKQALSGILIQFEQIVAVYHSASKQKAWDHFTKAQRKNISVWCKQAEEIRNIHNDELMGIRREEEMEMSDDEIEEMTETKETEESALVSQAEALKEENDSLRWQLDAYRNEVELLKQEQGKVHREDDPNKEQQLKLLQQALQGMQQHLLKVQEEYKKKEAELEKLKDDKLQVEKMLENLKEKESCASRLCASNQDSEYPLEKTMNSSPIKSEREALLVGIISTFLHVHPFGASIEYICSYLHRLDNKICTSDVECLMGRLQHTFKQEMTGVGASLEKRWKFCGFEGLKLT
Nature of the assay: NADH oxidase of intact HeLa (HeLa S) cells. The protocol:
HeLa (ATCC CCL2) cells were grown in 150 cm^2 flasks in Minimal Essential Medium (Gibco), pH 7.4, at 37° C. with 10% bovine calf serum (heat-inactivated), plus 50 mg/l gentamicin sulfate (Sigma). Cells were trypsinized with Sigma IX trypsin for 1 to 2 min and harvested by scraping and taken up in 140 mM NaCl, 5 mM KCl, 0.7 mM Na2HPO4 and 25 mM Tris, pH 7.4, to a final cell concentration of 0.1 g wet weight (gww) per ml.
NADH oxidase activity was determined as the disappearance of NADH measured at 340 nm in a reaction mixture containing 25 mM Tris-Mes buffer (pH 7.2), 1 mM KCN, and 150 μM NADH at 37° C. Activity was measured using a Hitachi U3210 spectrophotometer with stirring and continuous recording over two intervals of 5 min each. A millimolar extinction coefficient of 6.22 was used to determine specific activity.

In the next assay the target is T2, CNOX (Mus musculus, UniProt Q8BHR2).
T2 construct: endogenous in cells; host or cells: 4T1 mouse mammary carcinoma cells (intact)
T2 sequence (Q8BHR2 1-643): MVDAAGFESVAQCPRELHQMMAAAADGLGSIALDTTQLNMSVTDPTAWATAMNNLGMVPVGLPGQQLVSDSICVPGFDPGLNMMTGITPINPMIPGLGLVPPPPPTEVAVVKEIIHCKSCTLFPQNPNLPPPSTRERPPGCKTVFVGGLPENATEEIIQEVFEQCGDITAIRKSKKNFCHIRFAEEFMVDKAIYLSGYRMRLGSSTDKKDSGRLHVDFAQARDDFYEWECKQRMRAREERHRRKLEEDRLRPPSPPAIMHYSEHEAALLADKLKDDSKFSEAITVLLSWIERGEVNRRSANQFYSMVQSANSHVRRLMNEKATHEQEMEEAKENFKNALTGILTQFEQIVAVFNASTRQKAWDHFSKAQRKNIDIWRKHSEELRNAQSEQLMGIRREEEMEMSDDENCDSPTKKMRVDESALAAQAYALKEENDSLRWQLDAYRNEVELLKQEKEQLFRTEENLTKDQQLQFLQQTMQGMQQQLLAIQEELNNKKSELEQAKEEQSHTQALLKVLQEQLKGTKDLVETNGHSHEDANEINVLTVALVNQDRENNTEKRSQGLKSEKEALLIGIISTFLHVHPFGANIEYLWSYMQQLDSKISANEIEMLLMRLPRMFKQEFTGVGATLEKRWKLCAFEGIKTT
Nature of the assay: CNOX activity of intact 4T1 cells. The following applies: not effective up to and including this concentration. The protocol:
A mouse mammary tumor subpopulation line 4T1 arising from a BALB/cf C3H mouse was grown in DME-10, Dulbecco's modified Eagle's medium supplemented with 5% fetal calf serum, 5% newborn calf serum, 1 mM mixed non-essential amino acids, 2 mM L-glutamine, penicillin (100 units/ml), and streptomycin (100 μg/ml) (Miller et al., 1987, Brit. J. Can. 56:561-569 and Miller et al., 1990, Invasion Metastasis 10:101-112).
NADH oxidase activity was determined as the disappearance of NADH measured at 340 nm in a reaction mixture containing 25 mM Tris-Mes buffer (pH 7.2), 1 mM KCN, and 150 μM NADH at 37° C. Activity was measured at 340 nm with reference at 430 nm using an SLM Aminco DW-2000 spectrophotometer (Milton Roy, Rochester, N.Y.) in the dual beam mode of operation with stirring and continuous recording over two intervals of 5 min each. A millimolar extinction coefficient of 6.22 was used to determine specific activity.

Assay [2] has as its system BT-20 human mammary adenocarcinoma cells. Nature of the assay: Effect on intact cells in culture (growth, morphology, DAPI). The protocol:
BT-20 human breast adenocarcinoma cells were cultured in Eagle's minimal essential medium nonessential amino acids and Earle's balanced salts supplement with 10% fetal bovine serum. Media were renewed as for MCF-10A cells. […] The coverslips were rinsed and the cells fixed in methanol followed by addition of fluorescent dye 4′,6-diamidino-2-phenylindole (DAPI) as described (Wolvetang et al., 1994, FEBS Lett. 339:40-44). Cells were observed and photographed at a primary magnification of 400×.

For assay [3], the system named is MCF-10A human mammary epithelial (non-cancer) cells. Described as above.
The next assay concerns CHO cells. Nature of the assay: Growth of CHO cells. As to conditions: EGCg.
Setting [4] is: 10 μM EGCg added at t=0, 96 h, FIG. 4.
[5] abbreviates: 10^−6 M EGCg twice daily for 96 h.

(−) - epigallocatechin gallate [EGCg]: the “EGCg concentration at which NOX activity was stimulated” value in assay [1] is given as ≥ 10^−5 M. For the same substance, the “EGCg concentration for maximal inhibition of tNOX activity” value in assay [1] (EGCg alone, FIG. 12) is 0.1 µM. Besides, the “Concentration effective in inhibiting the residual CNOX activity” value at CNOX is listed as > 10^−6 M. The “Fate of treated cells” value in assay [2] (setting [4]) was “did not recover and died; also recorded: stopped growing and died”; in assay [3] (setting [4]), “quickly recovered and eventually grew normally; also recorded: recovered fully”. The “Reduction of cell diameter” value in assay [2] (setting [5]) is “about 25%”. The “Reduction of cell number” value in assay [2] (setting [5]) is “about 25%”. The “Reduction of cell volume” value in assay [2] (setting [5]) is 50%. For the same substance, the “Response of the cell line” value in assay [2] (10^−6 M EGCg, 72 h) was “no response”; in assay [3] (10^−6 M EGCg, 72 h) it was “no response”. In addition, the “Condensed chromatin (DAPI staining)” value in assay [2] (10 or 50 μM EGCg, 96 h, FIG. 5) is “characteristic of apoptosis”. The “Growth rate and cell diameters” value in assay [3] (setting [5]) is listed as “unaffected or slightly increased”. In addition, the Growth of cells entry in assay [3] (EGCg, unaffected except at very high doses of 10^−4 M, FIG. 2C) is given as “unaffected; also recorded: much less affected”. Further, the “Growth of CHO cells” value in the assay with CHO cells is “much less affected”.
